Experimental data reported in BindingDB's records for doi:10.1021/jm2005089 (National Human Genome Research Institute, 2011).

Biological target: T1, Polyunsaturated fatty acid lipoxygenase ALOX12 (Homo sapiens, UniProt P18054)
T1 sequence (P18054 whole entry): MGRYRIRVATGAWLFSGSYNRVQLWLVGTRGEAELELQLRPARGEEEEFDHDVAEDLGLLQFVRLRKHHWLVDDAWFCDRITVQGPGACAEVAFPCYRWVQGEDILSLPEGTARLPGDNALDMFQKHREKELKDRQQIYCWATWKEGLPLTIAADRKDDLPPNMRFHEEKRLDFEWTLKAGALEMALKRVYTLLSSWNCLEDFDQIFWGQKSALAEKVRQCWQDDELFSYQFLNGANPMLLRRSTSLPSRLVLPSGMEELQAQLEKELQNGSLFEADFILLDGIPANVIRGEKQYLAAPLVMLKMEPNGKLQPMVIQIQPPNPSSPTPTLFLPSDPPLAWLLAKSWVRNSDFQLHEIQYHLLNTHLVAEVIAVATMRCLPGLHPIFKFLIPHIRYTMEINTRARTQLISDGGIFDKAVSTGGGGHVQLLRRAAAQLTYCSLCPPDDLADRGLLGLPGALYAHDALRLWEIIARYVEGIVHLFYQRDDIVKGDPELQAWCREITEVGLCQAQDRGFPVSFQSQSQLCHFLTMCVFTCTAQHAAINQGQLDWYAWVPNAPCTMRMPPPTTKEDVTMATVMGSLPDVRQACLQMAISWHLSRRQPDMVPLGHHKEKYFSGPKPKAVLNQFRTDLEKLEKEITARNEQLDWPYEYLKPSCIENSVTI
Test: Competitive inhibition of human platelet-type N-terminally His6-tagged 12-lipoxygenase assessed as 12-HPETE formation using arachidonic acid by Michaelis-Menten equation analysis

Ki: 700 nM
SMILES: CC(=O)NC(c1cccs1)c1cc(Cl)c2cccnc2c1O (stereo unspecified)
